From publication PMC6273065, “Synthesis, Molecular Modelling and Biological Evaluation of Novel Heterodimeric, Multiple Ligands Targeting Cholinesterases and Amyloid Beta” (Molecules, 2016)
Like-named read-outs stand apart in the source and are kept apart here. Marks after values point to notes of the source that are not given here.

Assays:
[1] = biological target: T1, EeAChE (Electrophorus electricus, UniProt O42275); assay: biochemical; assay type: biochemical
T1 construct: purchased Sigma–Aldrich
Experimental: (§1) Ellman’s method was used to determine the activity of the synthesized compounds against AChE from electric eel (Electrophorus electricus, EeAChE) and BuChE from equine serum (EqBuChE).
(§2) All assays were performed in 0.1 M phosphate buffer pH 8.0. The tested compounds or water in a blank sample (25 µL) were incubated with the enzyme (20 µL) for 5 min at 25 °C in buffer (765 µL) prior to starting the reaction. Then, DTNB (20 µL) and ATC (20 µL) were added. […] Each condition was measured in triplicate. The percentages of enzyme inhibition were calculated from the equation 100%—Ai/A0 × 100%, where Ai is the absorbance of a sample with an inhibitor and A0 is the absorbance of a blank sample (100% activity of the enzyme). The IC50 values were calculated using GraphPad Prism 5. Data is expressed as mean ± SEM.

[2] = biological target: T2, EqBuChE (Equus caballus, UniProt P81908); assay: biochemical
T2 construct: BuChE from equine serum (EqBuChE, Sigma–Aldrich); purchased Sigma–Aldrich; host or cells: equine serum
Experimental: as §1, §2

[3] = biological target: T1, EeAChE; assay: Kinetic characterization of EeAChE inhibition (Lineweaver–Burk, Cornish–Bowden plots); assay type: biochemical; settings: Lineweaver–Burk and Cornish–Bowden plots, ATC 0.067–0.5 mM
Experimental: Both types of inhibition were further confirmed by Cornish–Bowden plots (S/V vs. [I]) (A. in Supplementary Materials).
To estimate the type of inhibition of EeAChE, the same experimental protocol as reported above (4.3.1) was performed. Different concentrations of the substrate ATC (0.067–0.5 mM) were used to create Lineweaver-Burk plots by plotting the inverse initial velocity (1/V) as a function of the inverse of the substrate concentration (1/[S]). The stock solution of ATC (0.5 mM in a well) was prepared in water and diluted before use to obtained 0.4, 0.3, 0.2, 0.1and 0.067 mM concentrations of substrate. The double reciprocal plots were assessed by a weighted least square analysis that assumed the variance of V to be a constant percentage of V for the entire data set. Each experiment was performed in triplicate. Then, to confirm the mode of inhibition, Cornish-Bowden plots were obtained by plotting S/V (substrate concentration/velocity ratio) versus the inhibitor concentration [I]. Data analysis was performed with GraphPad Prism 5.

[4] = system: Aβ12–23; settings: 50 µM compound, self-induced Aβ12–23 aggregation; mean ± SD; cited from earlier work
[5] = biological target: T3, Aβ1–42 (Homo sapiens, UniProt P05067); assay: Thioflavin-T fluorometric assay of self-induced Aβ1–42 aggregation; assay type: biochemical; settings: 10 µM compound, 1.5 µM Aβ1–42; mean ± SD; <10 = defined as not active; read-out: Aβ1–42 Aggreg. % of inhibition
T3 construct: Recombinant human HFIP-pretreated Aβ1–42 peptide; purchased Merck Millipore Lot number 2387442
Source text: Mechanisms of Aβ aggregation remain unclear. Besides the self-induced assembly of Aβ, several other factors affect its aggregation, including metal ions, AChE [45], and oxidative stress. Therefore, we evaluated our compounds using the most versatile and commonly used Aβ1–42 aggregation Thioflavin T assay. Seven structurally diverse compounds were selected (one from each subseries) to test their ability to inhibit self-induced Aβ1–42 aggregation.
Thioflavin-T (ThT) fluorometric assay was performed to investigate the effect of the test compounds on the self-aggregation of Aβ1–42. […] Each sample was prepared in quadruplicate, and the DMSO was always at 3%. To quantify amyloid fibril formation, the ThT fluorescence was measured through the bottom of the plate every 180 s at an excitation wavelength of 440 nm and emission wavelength of 490 nm, with the medium continuously shaking between measurements using a 96-well microplate reader (Synergy™ H4, BioTek Instruments, Inc., Winooski, VT, USA). […] The fluorescence intensities at the plateau in the absence and presence of the test compounds were averaged, and the average fluorescence of the corresponding wells at t = 0 h was subtracted.

[6] = PAMPA-BBB; for Log Pe: 2 h at 37 °C, means of two replicates; for Prediction of BBB penetration: class from log Pe
Experimental: For anti-Alzheimer drug candidates, the ability to cross the blood–brain barrier and to enter the central nervous system (CNS) is crucial to achieve their pharmacological target and activity.
The BBB-PAMPA Explorer Test System was purchased from pION Inc. The in vitro permeability through BBB-1 lipid membrane was determined for 7 commercial drugs and the tested compounds. The compounds were dissolved in DMSO (10 mM stock solution) and diluted with Prisma HT buffer (5 µL/1 mL). Then, the […] 96-well microplate was filled with solution of the tested compounds in buffer (200 µL/well). The filter membrane in acceptor 96-well microplate was impregnated with BBB-1 lipid solution (5 µL/well) and the acceptor plate was filled with Brain Sink Buffer (200 µL/well). The acceptor plate was carefully placed on the donor plate to form a sandwich that was left undisturbed for 2 h at 37 °C. After incubation, the donor plate was carefully removed. The concentration of compounds in the acceptor, the donor, and the reference wells were measured using EnSpire Multimode Microplate Reader (PerkinElmer).

[7] = biological target: T1, EeAChE; settings: cited from earlier work
[8] = biological target: T2, EqBuChE; settings: % inhibition at 50 μM lower than 50%; cited from earlier work
[9] = biological target: T3, Aβ1–42; parameters: method as in PMID 26032855; settings: 10 µM compound, self-induced; mean ± SD; cited from earlier work

T2 sequence (P81908 whole entry): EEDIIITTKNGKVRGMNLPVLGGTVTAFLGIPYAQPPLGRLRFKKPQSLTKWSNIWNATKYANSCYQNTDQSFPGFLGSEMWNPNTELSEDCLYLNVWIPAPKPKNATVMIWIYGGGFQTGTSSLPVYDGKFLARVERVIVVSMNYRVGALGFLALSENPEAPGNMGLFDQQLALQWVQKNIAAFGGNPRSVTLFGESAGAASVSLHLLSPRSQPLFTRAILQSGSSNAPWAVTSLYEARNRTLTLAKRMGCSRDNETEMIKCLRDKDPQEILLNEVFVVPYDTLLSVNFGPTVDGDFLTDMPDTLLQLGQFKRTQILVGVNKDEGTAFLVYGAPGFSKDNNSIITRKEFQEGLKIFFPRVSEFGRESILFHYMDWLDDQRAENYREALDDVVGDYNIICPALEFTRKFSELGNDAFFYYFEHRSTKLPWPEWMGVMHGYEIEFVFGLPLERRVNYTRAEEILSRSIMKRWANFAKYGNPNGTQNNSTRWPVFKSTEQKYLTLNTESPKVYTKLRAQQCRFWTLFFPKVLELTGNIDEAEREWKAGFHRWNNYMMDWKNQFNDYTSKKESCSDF
T3 sequence (P05067 672-713): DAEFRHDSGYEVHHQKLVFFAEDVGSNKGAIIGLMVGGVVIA
T1 sequence (O42275 24-633): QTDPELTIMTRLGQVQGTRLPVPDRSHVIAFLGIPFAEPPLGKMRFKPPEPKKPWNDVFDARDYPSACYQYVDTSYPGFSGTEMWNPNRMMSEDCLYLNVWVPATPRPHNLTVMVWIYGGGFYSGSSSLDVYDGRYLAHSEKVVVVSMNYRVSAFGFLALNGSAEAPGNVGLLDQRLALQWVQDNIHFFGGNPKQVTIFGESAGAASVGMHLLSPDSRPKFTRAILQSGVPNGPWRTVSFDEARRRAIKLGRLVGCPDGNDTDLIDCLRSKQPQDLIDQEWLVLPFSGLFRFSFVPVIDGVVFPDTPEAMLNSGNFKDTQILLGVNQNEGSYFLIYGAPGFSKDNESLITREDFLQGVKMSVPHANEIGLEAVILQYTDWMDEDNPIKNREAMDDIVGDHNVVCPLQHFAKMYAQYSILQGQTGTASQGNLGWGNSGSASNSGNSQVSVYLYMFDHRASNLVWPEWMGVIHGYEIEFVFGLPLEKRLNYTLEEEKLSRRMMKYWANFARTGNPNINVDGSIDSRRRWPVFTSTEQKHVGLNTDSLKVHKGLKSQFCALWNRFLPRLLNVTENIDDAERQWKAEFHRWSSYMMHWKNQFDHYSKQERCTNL

Row | SMILES | IC50 [1] [nM] | IC50 [2] [nM] | type of EeAChE inhibition [3] | Aβ12–23 aggregation % of inhibition [4] | inhibition at 10 µM [5] [%] | Log Pe [6] | Prediction of BBB penetration [6] | IC50 [7] [nM] | IC50 [8] [nM] | Aβ1–42 Aggreg. % of inhibition [9] [%]
1 | O=C1c2ccccc2C(=O)N1CCCCCCN1CCc2ccccc2C1 [Compound 11, 2-(6-(3,4-dihydroisoquinolin-2(1H)-yl)hexyl)isoindoline-1,3-dione] | 387 ± 3 | 5120 ± 90 | mixed type of enzyme inhibition |  |  |  |  |  |  | 
2 | CCN(CC)CCCCCCCCN1C(=O)c2ccccc2C1=O [Compd. I] |  |  |  | 30.10 ± 5.78 ^f % |  |  |  |  |  | 
3 | O=C1c2ccccc2C(=O)N1CCCCCCCCN1CCCC1 [Compound 4, 2-(8-(Pyrrolidin-1-yl)octyl)isoindoline-1,3-dione] | 282 ± 11 | 3240 ± 141 | mixed type of enzyme inhibition |  | 15.2 ± 3.06 | –4.0 | CNS+ (CNS+, log Pe > −4.5, high permeability (i.e., can enter the CNS)) |  |  | 
4 | O=C1c2ccccc2C(=O)N1CCCCCCCN1CCCC1 [Compound 3, 2-(7-(Pyrrolidin-1-yl)heptyl)isoindoline-1,3-dione] | 276 ± 3 | > 50000 | mixed type of enzyme inhibition |  |  |  |  |  |  | 
5 | O=C1c2ccccc2S(=O)(=O)N1CCCCCNCc1ccccc1 [Compd. II] |  |  |  |  |  |  |  | 36 ± 1 | > 50000 | 22.19 ± 16.6
6 | O=C1c2ccccc2S(=O)(=O)N1CCCCCNCc1cccc(Cl)c1 [Compound 42, 2-(5-(3-chlorobenzylamino)pentyl)benzo[d]isothiazol-3(2H)-one 1,1-dioxide] | 70 ± 1 | > 50000 | linear non-competitive type of inhibition |  | 16.5 ± 3.01 | –4.3 | CNS+ (CNS+, log Pe > −4.5, high permeability (i.e., can enter the CNS)) |  |  | 
